Source: a melting point compilation (Tetko et al.; mined from patent text by program, amines drawn as free bases though some values may be those of a salt)

Row | Compound | melting point [°C]
1 | COC(=O)c1cc(C(C)(C)C)cc(C(C)(C)C)c1 | 52 to 52.5
2 | COP(=S)(OC)Oc1nc(F)c(Cl)cc1Cl | < 20
3 | FC(F)Sc1nc2ncccc2s1 | 41 to 43
4 | CC(C)(C)OC(=O)CN1CC(c2cccs2)SCC(N)C1=O (configuration not stated) | 81 to 82
5 | Nc1cccc(O)c1Cl | 153
6 | Cn1cc(C#N)c(-c2ccco2)n1 | 104 to 106
7 | COc1cc(C=CC(=O)CC(C)=O)ccc1O | 146 to 147
8 | CCc1cc(NC(C)=O)c(C=O)c(CC)n1 | 91 to 92
9 | Brc1c(C2=NOCCS2)sc2ccccc12 | 80 to 85
10 | CC(CC(C(=O)N(C)C)(c1ccccc1)c1ccccc1)N1CCC(NCc2ccccc2)C(O)C1 (configuration not stated) | 134
11 | CC(=NNC(=O)C1CCCCC1)c1ccncc1 | 195
12 | O=c1c2cc(F)ccc2nc(C(S)c2ncnc3[nH]cnc23)n1-c1ccccc1Cl (configuration not stated) | 233
13 | COC(=O)[C@@H]1Cc2cc(OC)c(O)cc2C(=O)N1 | 280 to 285
14 | O=c1c2cc(Cl)ccc2nc(CSc2ncnc3[nH]cnc23)n1-c1ccccc1Cl | 237 to 238
15 | CS(=O)(=O)Oc1cc(CC(=O)O)on1 | 101 to 103
16 | CC(=O)c1ccc2c(=O)c(Br)c(C)oc2c1 | 124
17 | CC(C)Sc1c(C2=NC(C)(C)CO2)oc(Br)c1Br | 71 to 72
18 | CC1=C(C#N)S(=O)(=O)c2cc(Cl)ccc2N1 | 297 to 299
19 | CC(=O)OCC1SC(N2CCc3ccccc32)C(OC(C)=O)C(OC(C)=O)C1OC(C)=O (configuration not stated) | 163 to 165
20 | CCCN1C(=O)N2CCCN=C2c2c1ncn2C | 107 to 109
21 | Nc1ccc(OCC2COCCO2)cc1 (configuration not stated) | 86 to 87

Row | Compound | melting point [°C]
22 | c1cnc2cccn2c1 | 230 to 231
23 | CCOc1ccc(N=Cc2cc(OC)c(OC)c(OC)c2)cc1 | 75 to 77
24 | COC(C)Cn1c(C)nc2cnc3ccccc3c21 (configuration not stated) | 55 to 57
25 | CN1CCN(C(=O)COc2ccc(N)cc2)CC1 | 71 to 73
26 | COc1cc2c(cc1OC)CC(N(C)CCCN1CCc3cc4c(cc3CC1=O)OCCO4)CC2 (configuration not stated) | 152 to 157
27 | Cc1c(C)c2c(c(C)c1Br)OC(C)(C)C2=O | 125 to 127
28 | O[C@H](CCl)CN=Cc1ccccc1 | 46
29 | CC(=O)NC(=S)N1CCSC1c1ccccc1OCCN1CC=C(c2cccc(F)c2)CC1 (configuration not stated) | 135 to 136
30 | Cc1cccc(C)c1N1C(=O)CN(C(C)C)C1=S | 135 to 137
31 | CC12CCC(O)CC1CCC1C2CCC2(C)C(C=NNC(N)=O)CCC12O (configuration not stated) | 222 to 226
32 | COc1cc2c(c(O)c1C)COC(C)C2 (configuration not stated) | 143 to 145
33 | NC(=O)N(O)CC#CCOc1ccccc1 | 97 to 99
34 | CC(=O)OC1CCC2(C)C(=CCC3C2CCC2(C)C(C(C)C(O)CCC(C)(C)C)CCC32)C1 (configuration not stated) | 185 to 187
35 | N#Cc1c(Cl)c(Cl)n(CCl)c1-c1ccc(Cl)c(Cl)c1 | 153 to 156
36 | C#Cc1c(C#N)nn(-c2c(Cl)cc(C(F)(F)F)cc2Cl)c1Br | 134 to 135
37 | NC(=O)c1c(F)cc(NC2CCNCC2)cc1F | 166 to 168
38 | CCc1c(O)cc(=O)[nH]c1C | 360
39 | CCOC(=O)c1cc2ccc(C#N)cc2[nH]1 | 176
40 | COc1ccc(C2=NNC(=O)[C@H]3CCCC[C@@H]23)cc1OC1CCCC1 (relative stereo) | 175 to 176
41 | Cc1c(N2CC[C@@H](C3(NCCO)CC3)C2)c(F)cc2c(=O)c(C(=O)O)cn([C@@H]3C[C@@H]3F)c12 | 168 to 170
42 | COc1cc2cc(C=NO)c(Cl)nc2cc1OC | 237 to 238

The next lines start with the values.

Row | melting point [°C] | Compound
43 | 93 to 95 | Cn1c(=O)n(CC(=O)OCCF)c(=O)n(-c2cc(Oc3ncc(C(F)(F)F)cc3Cl)ccc2Br)c1=O
44 | 125 to 126 | COC(=O)c1cccc(-c2cccc(Oc3cc(Cl)cc(Cl)c3)n2)c1
45 | 135 to 136 | CCC(CC)(C(=O)N(C)C)n1cc(C)c(-c2ccccc2)n1
46 | 144 to 145 | COc1ccc(CNS(=O)(=O)Cc2ccc3[nH]cc(CC#N)c3c2)cc1
47 | 146 | O=C(O)CCc1cc2nc(Cl)ccc2n1S(=O)(=O)c1cccc(OC(F)(F)F)c1
48 | 212 to 215 | O=C(CC1CC1)NC[C@H]1CN(c2ccc3c(c2)CCCc2cn[nH]c2-3)C(=O)O1
49 | 149 to 151 | COC1CCN(Cc2ccc(COc3cccc4c3CN(C3CCC(=O)NC3=O)C4=O)cc2)CC1 (configuration not stated)
50 | 166 to 167 | COCCNC(=O)c1n[nH]cc1NC(=O)c1ccccn1
51 | 164 to 167 | CC(=O)c1ccc(C2=C(c3ccc(S(C)(=O)=O)cc3)OC(C)(C)C2=O)cc1
52 | 120 to 123 | CN1CCC(=O)N(c2ccccc2Cl)C1=O
53 | 175 to 177 | Cc1cc(C)cc(NC(=O)Cc2ccc(OC3(C(=O)O)CCCC(C)C3)cc2)c1 (configuration not stated)
54 | 159 to 160 | CS(=O)c1ccc(Oc2ccc([N+](=O)[O-])cc2C#N)cc1 (configuration not stated)
55 | 280 | COc1ccc2c(C(F)(F)F)cc(=O)[nH]c2c1NC(C)=O
56 | > 200 | O=C(Nc1cccc(-c2ccnc3c(C(=O)c4cccs4)cnn23)c1)OCc1cccnc1
57 | 215 to 225 | O=C(O)c1cc(-n2c(-c3cccc(C(F)(F)F)c3)cc3c2CCCC3)ccc1O
58 | 132 to 133 | COc1ccc(C(=O)Nc2ccccc2C(=O)c2ccccn2)cc1
59 | 78 to 79 | CN1CCN(C(=O)CCCCCNC(=O)c2cc(OCc3ccccc3)ccc2OCc2ccccc2)CC1
60 | 100 | CCc1nc(CC)c(CO)c(-c2ccccc2)c1CC
61 | 117 | O=S(=O)(CCCCl)Nc1ccc(OCc2ccc3ccccc3n2)cc1
62 | 108 to 111 | O=C(O)c1c(Cl)ccc2cc(C(F)(F)F)c(C(F)(F)F)nc12

Row | melting point [°C] | Compound
63 | 199 to 203 | CC(C)(C)c1ccc(N(CCCOc2ccc(C(=O)O)cc2)C(=O)c2ccc3c(c2)OCO3)cc1
64 | 129 to 131 | FC(F)(F)c1ccc(-c2cc(Oc3ccc4c(C(F)(F)F)ccnc4c3)ncn2)cc1
65 | 185 to 187 | CC(C)(C)[C@H]1CC[C@H](N(Cc2ccc(C(=O)NC[C@H](O)C(=O)O)cc2)C(=O)Nc2cc(C(F)(F)F)cc(C(F)(F)F)c2)CC1
66 | 210 to 211 | Nc1c2c(=O)c3ccccc3c(=O)c2c(N)c2c(=O)n(CCCCCCO)c(=O)c12
67 | 118 to 119 | CCOCc1nc2cnc3cccnc3c2n1Cc1ccccc1
68 | 102 to 104 | CCc1onc(-c2ccccc2)c1C(=O)NCCCN1CCN(c2ccccc2OCC(F)(F)F)CC1
69 | 205 to 207 | Cc1ccnc2c1nc(COc1ccc(CC3SC(=O)NC3=O)cc1)n2C (configuration not stated)
70 | 153 to 154 | Cc1nccn1-c1ccc(COc2cccc(C3(C#N)CCOCC3)c2)cc1
71 | 171 to 172 | COc1ccc2c(c1)CC(CNC(=O)Nc1c(C(C)C)cccc1C(C)C)CC2 (configuration not stated)
72 | 171 to 173 | O=c1oc(-c2ccc(S(=O)c3ccccc3)cc2)cc(O)c1SCCc1ccccc1 (configuration not stated)
73 | 162 to 167 | CC(C)n1nc(-c2sc(NC(=O)c3ccc(C(F)(F)F)cc3)nc2-c2ccccc2)ccc1=O
74 | 149 | COc1ccc(C2=C(C#N)C(c3ccccc3OC)c3c[nH]nc3N2)cc1 (configuration not stated)
75 | 252 to 254 | CSc1ncc(-c2ccccc2)c(=O)[nH]1
76 | 56 to 57 | CCCCCCCCCCCCNC(=O)n1nc(Oc2ncc(C(F)(F)F)cc2Cl)cc1C
77 | 121 to 123 | Nc1cc(C(F)(F)F)cc([N+](=O)[O-])c1N
78 | 252 to 255 | CNC1CCN(c2c(F)cc3c(=O)c(C(=O)O)cn(C4COC4)c3c2F)C1 (configuration not stated)
79 | 257 to 259 | Cn1cc(C2(c3c4n(c5ccccc35)CCCCC4)CC(=O)OC2=O)c2ccccc21 (configuration not stated)
80 | 66 | Cc1ccc(S(=O)(=O)N2CCCC2c2ccc(N(C)C)c(F)c2)cc1 (racemic)
81 | 120 to 122 | CC(C)CCOCc1cccc(N2N=C(C(N)=O)NC2c2ccccc2F)c1 (configuration not stated)
82 | 227 to 229 | Cc1nc(-c2ccccc2)nc(-c2cccc([N+](=O)[O-])c2)c1CNC(N)=S

Row | melting point [°C] | Compound
83 | 151 to 152 | Cc1oc(-c2ccccc2)nc1COc1cccc(CN(O)C(N)=O)c1
84 | 104 to 105 | CCC(=Cc1ccccc1)C(=O)O
85 | 147 to 150 | Clc1cc(CBr)c2noc(-c3ccc(Br)cc3)c2c1
86 | 288 to 289 | O=c1[nH]c(=Cc2cccs2)c(=O)[nH]c1=Cc1ccc2ccccc2n1
87 | 123 to 124 | N=C(Nc1cc(Cl)cc(NC(=O)/C=C/c2ccccc2Cl)c1)c1cccs1
88 | 134 to 136 | COC(=O)c1cccc(OC2CCOc3ccc(OCc4ccccc4)cc3C2=O)c1 (configuration not stated)
89 | 132 to 134 | CCN(CC)CCN1C(=O)Nc2ccncc2C1c1ccccc1 (configuration not stated)
90 | 221 | CCC(=S)C1=C(C)NC2=C(C(=O)c3ccccc32)C1c1ccccc1[N+](=O)[O-] (configuration not stated)
91 | 130 to 131 | CCOC(=O)C(=O)N(O)Cc1ccc2c(c1)Cc1ccccc1-2
92 | 154 to 155 | COc1ccc(Cl)cc1-c1nnn(-c2ccc(Cl)cc2Cl)c1N
93 | 156 to 160 | O=C(Nc1ccccc1C(=O)NCCc1nccs1)c1ccc(Cl)cc1
94 | 50 to 60 | CCOC(=O)CCNC(=O)N1CCn2c(c(C(N)=O)c(Cl)c2-c2ccccc2)C1
95 | 280 to 282 | O=C(O)c1ccc(C(=O)Nc2ccccc2C(c2ccc(O)cc2)c2ccc(O)cc2)cc1
96 | 290 to 291 | COC(=O)c1ccc2oc(-c3ccccc3O)cc(=O)c2c1
97 | 204 to 206 | CC1(C)CC(=O)c2c(NCc3ccco3)sc(-c3cc[nH]n3)c2C1
98 | 96 | O=C(Nc1ccc2c(c1)CC(NS(=O)(=O)c1ccccc1)C2)c1ccccc1-c1ccc(C(F)(F)F)cc1 (configuration not stated)
99 | 158 to 163 | OCCCNc1cc(-c2ccnc(Nc3cccc(C(F)(F)F)c3)n2)ccn1
100 | 150 to 151 | Cc1cc(O)c(S(=O)Cc2ccc(Cl)cc2)c(=O)o1 (configuration not stated)
101 | 181 to 182 | CCN(CC)CCNc1ccc(CO)c2sc3ccc(O)cc3c(=O)c12
102 | 74 to 75 | COC(=O)CN(C=O)C1c2ccccc2CCC1(C)C (configuration not stated)
